Assay results published in EPA's ToxRefDB 2.

Key:
mouse [1] = details: Subchronic oral toxicity in rodents, cd1, Feed, dose end: 98 day, group: systemic, systemic / organ weight / liver / absolute + systemic / organ weight / liver / relative to body weight + systemic / pathology microscopic / …
rabbit = details: Prenatal developmental toxicity study, new zealand white, Oral, Gavage/Intubation, dose end: 18 GD
dog [2] = details: Chronic toxicity, beagle, Oral, Feed, dose end: 52 week, group: systemic
rat [3] = details: Subchronic oral toxicity in rodents, wistar, Feed, dose end: 98 day, group: systemic
mouse [4] = details: Carcinogenicity, other, Oral, Feed, dose end: 24 month, group: systemic
rat [5] = details: Prenatal developmental toxicity study, sprague dawley, Oral, Gavage/Intubation, dose end: 15 GD
rat [6] = details: Combined chronic toxicity/carcinogenicity, wistar, Oral, Feed, dose end: 24 month, group: systemic
rat [7] = details: Sub-acute repeat dose toxicity, Oral, Gavage/Intubation, dose end: 14 day, group: systemic
rat [8] = details: Sub-acute repeat dose toxicity; Oral; Gavage/Intubation; dose end: 5 day; group: systemic; systemic / in life observation / food consumption / food consumption
rat [9] = details: Sub-acute repeat dose toxicity, Oral, Gavage/Intubation, dose end: 5 day, group: systemic
rat [10] = details: Sub-acute repeat dose toxicity, Oral, Gavage/Intubation, dose end: 12 day, group: systemic
rat [11] = details: Subchronic oral toxicity in rodents, sprague dawley, Gavage/Intubation, dose end: 91 day, group: systemic
rat [12] = details: Sub-acute repeat dose toxicity, Oral, Gavage/Intubation, dose end: 8 day, group: systemic
dog [13] = details: Subchronic oral toxicity in nonrodent, beagle, Gavage/Intubation, dose end: 93 day
rat [14] = details: Sub-acute repeat dose toxicity; Oral; Gavage/Intubation; dose end: 4 day; group: systemic; systemic / clinical chemistry / [other] / [other] + systemic / clinical chemistry / 5' nucleotidase / 5' nucleotidase + systemic / clinical …
dog [15] = details: Subchronic oral toxicity in nonrodent, beagle, Feed, dose end: 13 week, group: systemic
rat [16] = details: Multigenerational reproductive toxicity study, other, Oral, Feed, dose end: 2 generation
dog [17] = details: Chronic toxicity, beagle, Oral, Feed, dose end: 52 week, group: systemic; remark: listed apart in the source
rat [18] = details: Combined chronic toxicity/carcinogenicity, fischer, Oral, Feed, dose end: 2 year, group: systemic
mouse [19] = details: Subchronic oral toxicity in rodents, cd1, Feed, dose end: 13 week, group: systemic, systemic / clinical chemistry / alkaline phosphatase (alp/alk) / alkaline phosphatase (alp/alk) + systemic / organ weight / liver / nos + …
rat [20] = details: Subchronic oral toxicity in rodents, fischer, Feed, dose end: 13 week, group: systemic
[21] = group: developmental, developmental / developmental malformation / bone / incomplete ossification
[22] = group: maternal, systemic / in life observation / body weight / body weight gain + systemic / in life observation / food consumption / food consumption
[23] = systemic / clinical chemistry / alanine aminotransferase (alt/sgpt) / alanine aminotransferase (alt/sgpt) + systemic / clinical chemistry / …
[24] = systemic / pathology microscopic / spleen / hemosiderosis + systemic / pathology microscopic / liver / cytoplasmic alteration
[25] = systemic / in life observation / body weight / body weight + systemic / in life observation / body weight / body weight gain + systemic / in…
[26] = systemic / clinical chemistry / albumin-globulin ratio / albumin-globulin ratio + systemic / clinical chemistry / glucose / glucose
[27] = systemic / pathology microscopic / liver / fatty change + systemic / pathology microscopic / liver / granuloma + systemic / pathology …
[28] = group: developmental, developmental / developmental malformation / bone / absent + developmental / developmental malformation / bone / delayed ossification + …
[29] = group: maternal, systemic / in life observation / clinical signs / abnormal gait + systemic / in life observation / body weight / body weight + systemic / in…
[30] = systemic / clinical chemistry / creatinine / creatinine
[31] = systemic / clinical chemistry / 5' nucleotidase / 5' nucleotidase + systemic / clinical chemistry / glucose / glucose + systemic / clinical …
[32] = systemic / clinical chemistry / potassium / potassium
[33] = systemic / clinical chemistry / albumin / albumin + systemic / clinical chemistry / globulins / globulins + systemic / clinical chemistry / …
[34] = systemic / hematology / neutrophils / neutrophils + systemic / pathology microscopic / mesentery / inflammation + systemic / pathology …
[35] = systemic / hematology / neutrophils / neutrophils + systemic / pathology microscopic / intestine small / inflammation + systemic / pathology…
[36] = systemic / in life observation / clinical signs / abnormal feces + systemic / in life observation / clinical signs / fur (altered appearance…
[37] = systemic / in life observation / mortality / mortality + systemic / organ weight / testes / absolute + systemic / pathology microscopic / …
[38] = systemic / hematology / neutrophils / neutrophils
[39] = group: maternal, reproductive / reproductive performance / estrous cycle / absent corpora lutea
[40] = group: systemic, systemic / organ weight / testes / absolute + systemic / pathology microscopic / testes / degeneration
[41] = group: systemic, systemic / organ weight / testes / absolute + systemic / pathology microscopic / testes / degeneration + systemic / in life observation / …
[42] = systemic / pathology microscopic / kidney / crystals + systemic / pathology microscopic / kidney / hyperplasia + systemic / organ weight / …
[43] = group: offspring, systemic / in life observation / body weight / offspring (pup) weight gain
[44] = group: parental, systemic / organ weight / liver / relative to body weight
[45] = group: parental, systemic / pathology microscopic / kidney / crystals + systemic / pathology microscopic / kidney / degeneration + systemic / pathology …
[46] = systemic / pathology microscopic / kidney / hyperplasia + systemic / in life observation / body weight / body weight gain + systemic / in …
[47] = systemic / in life observation / body weight / body weight + systemic / in life observation / body weight / body weight gain + systemic / …
[48] = systemic / clinical chemistry / albumin / albumin + systemic / clinical chemistry / cholesterol / cholesterol + systemic / clinical …

## CCC/C(=N\OCC)C1=C(O)CC(CC(C)SCC)CC1=O (stereo not given) [Sethoxydim]
Mouse [1]
  LEL: 137 mg/kg/day
  LOAEL: 137 mg/kg/day
  NEL: 45.6 mg/kg/day
  NOAEL: 45.6 mg/kg/day
rabbit; [21]
  LEL: 400 mg/kg/day
  LOAEL: 400 mg/kg/day
  NEL: 160 mg/kg/day
  NOAEL: 160 mg/kg/day
rabbit; [22]
  LEL: 400 mg/kg/day
  LOAEL: 400 mg/kg/day
  NEL: 160 mg/kg/day
  NOAEL: 160 mg/kg/day
Dog [2]; [23]
  LOAEL: 110 mg/kg/day
  NOAEL: 17.5 mg/kg/day
Dog [2]; [24]
  LEL: 8.7 mg/kg/day
  NEL: < 8.7 mg/kg/day
Rat [3]; [25]
  LOAEL: 196 mg/kg/day
  NEL: 20.1 mg/kg/day
  NOAEL: 60.4 mg/kg/day
Rat [3]; systemic / organ weight / liver / relative to body weight + systemic / pathology microscopic / liver / hypertrophy
  LEL: 60.4 mg/kg/day
Mouse [4]; [26]
  LEL: 4.85 mg/kg/day
  NEL: < 4.85 mg/kg/day
Mouse [4]; [27]
  LOAEL: 41.2 mg/kg/day
  NOAEL: 13.8 mg/kg/day
Rat [5]; group: developmental, developmental / developmental malformation / bone / absent
  LEL: 180 mg/kg/day
Rat [5]; [28]
  LOAEL: 650 mg/kg/day
  NEL: 50 mg/kg/day
  NOAEL: 180 mg/kg/day
Rat [5]; group: maternal, systemic / in life observation / clinical signs / abnormal gait
  LOAEL: 180 mg/kg/day
Rat [5]; [29]
  NEL: 180 mg/kg/day
  NOAEL: 50 mg/kg/day
Rat [5]; group: maternal, systemic / in life observation / clinical signs / abnormal gait + systemic / in life observation / clinical signs / anogenital staining + …
  LEL: 650 mg/kg/day
Rat [6]; [30]
  LEL: 12 mg/kg/day
  NEL: < 12 mg/kg/day
Rat [6]; systemic / pathology microscopic / liver / hypertrophy
  LOAEL: 48 mg/kg/day
Rat [6]; systemic / pathology microscopic / liver / hypertrophy + systemic / clinical chemistry / alkaline phosphatase (alp/alk) / alkaline …
  NOAEL: 12 mg/kg/day

## CCc1nn(C2CCCCC2)c2cc(C3(C#N)CCC(C(=O)O)CC3)ccc12 (stereo not given)
Rat [7]; [31]
  LOAEL: > 60 mg/kg/day
  NOAEL: ≥ 60 mg/kg/day
Rat [7]; [32]
  LEL: 3 mg/kg/day
  NEL: < 3 mg/kg/day
Rat [8]
  LEL: 1 mg/kg/day
  LOAEL: > 10 mg/kg/day
  NEL: < 1 mg/kg/day
  NOAEL: ≥ 10 mg/kg/day
Rat [9]; [33]
  LOAEL: > 30 mg/kg/day
  NOAEL: ≥ 30 mg/kg/day
Rat [9]; [34]
  LEL: 15 mg/kg/day
  NEL: < 15 mg/kg/day
Rat [10]; [33]
  LOAEL: > 30 mg/kg/day
  NOAEL: ≥ 30 mg/kg/day
Rat [10]; [35]
  LEL: 15 mg/kg/day
  NEL: < 15 mg/kg/day
Rat [11]; [36]
  LEL: 1 mg/kg/day
  NEL: < 1 mg/kg/day
Rat [11]; [37]
  LOAEL: > 15 mg/kg/day
  NOAEL: ≥ 15 mg/kg/day
Rat [12]; [33]
  LOAEL: > 30 mg/kg/day
  NOAEL: ≥ 30 mg/kg/day
Rat [12]; [38]
  LEL: 15 mg/kg/day
  NEL: < 15 mg/kg/day
Dog [13]; [39]
  LEL: 1 mg/kg/day
  LOAEL: > 10 mg/kg/day
  NEL: < 1 mg/kg/day
  NOAEL: ≥ 10 mg/kg/day
Dog [13]; [40]
  LEL: 1 mg/kg/day
  NEL: < 1 mg/kg/day
Dog [13]; [41]
  LOAEL: > 10 mg/kg/day
  NOAEL: ≥ 10 mg/kg/day
Rat [14]
  LEL: 30 mg/kg/day
  LOAEL: > 30 mg/kg/day
  NEL: < 30 mg/kg/day
  NOAEL: ≥ 30 mg/kg/day

## COc1cnc(OC)n2nc(NS(=O)(=O)c3c(OCC(F)F)cccc3C(F)(F)F)nc12 [Penoxsulam]
Dog [15]; systemic / pathology microscopic / kidney / crystals + systemic / pathology microscopic / kidney / hyperplasia
  LOAEL: 49.4 mg/kg/day
Dog [15]; [42]
  LEL: 49.4 mg/kg/day
  NEL: 17.8 mg/kg/day
  NOAEL: 17.8 mg/kg/day
Rat [16]; group: offspring, developmental / developmental landmark / preputial separation / preputial separation
  LEL: 100 mg/kg/day
Rat [16]; [43]
  LOAEL: 300 mg/kg/day
  NOAEL: 100 mg/kg/day
Rat [16]; group: offspring, systemic / in life observation / body weight / offspring (pup) weight gain + developmental / developmental landmark / preputial separation…
  NEL: 30 mg/kg/day
Rat [16]; [44]
  LEL: 30 mg/kg/day
  NEL: < 30 mg/kg/day
Rat [16]; [45]
  LOAEL: 100 mg/kg/day
  NOAEL: 30 mg/kg/day
Dog [17]; systemic / pathology microscopic / kidney / hyperplasia
  LOAEL: 46.2 mg/kg/day
Dog [17]; [46]
  LEL: 46.2 mg/kg/day
  NEL: 14.7 mg/kg/day
  NOAEL: 14.7 mg/kg/day
Rat [18]; [47]
  LOAEL: 254 mg/kg/day
  NEL: 5.1 mg/kg/day
  NOAEL: 50.9 mg/kg/day
Rat [18]; systemic / pathology microscopic / kidney / hyperplasia + systemic / in life observation / clinical signs / perineal soiling
  LEL: 50.9 mg/kg/day
Mouse [19]
  LEL: 511 mg/kg/day
  LOAEL: > 1030 mg/kg/day
  NEL: 102 mg/kg/day
  NOAEL: ≥ 1030 mg/kg/day
Rat [20]; [48]
  LOAEL: 263 mg/kg/day
  NOAEL: 53.3 mg/kg/day
Rat [20]; systemic / in life observation / clinical signs / perineal soiling
  LEL: 52.3 mg/kg/day
Rat [20]; systemic / in life observation / clinical signs / perineal soiling + systemic / hematology / blood clotting / blood clotting - prothrombin …
  NEL: 5.2 mg/kg/day
